# System: PBM cells
# Experiment: Cytotoxicity in uninfected PHA-stimulated human PBM cells
# Details: read-out: Cytotoxicity (IC50) PBM cells, 6 days, cell growth
compound,measurement,value
"Cc1cn([C@H]2C[C@H](N=[N+]=[N-])[C@@H](CO)O2)c(=O)[nH]c1=O [AZT, 3′-azido-3′-deoxythymidine]",IC50,> 100 µM
